Results reported in patent US11959088B2, “Modifying protein production in plants” (MEDICAGO INC., priority 2014, dated 2024).

Assays:
[1] = test system: Nicotiana benthamiana plants; test: BAP treatment after seedling transplantation: HA production (hemagglutination assay) after agroinfiltration with construct 484; type: in vivo; conditions: 500 ppm after 7 and 12 days
[2] = test system: Nicotiana benthamiana plants; test: BAP treatment after seedling transplantation: primary and secondary leaf biomass; type: in vivo
[3] = 500 ppm 7 days after transplantation

c1ccc(CNc2ncnc3nc[nH]c23)cc1 [BAP, 6-benzylaminopurine]
increase of total HA yield per plant ([1]; versus control (non-treated) plants): 45-50% | yield of HA per g fresh weight ([1]; control less than 200,000 units (FIG. 10)): more than 300,000 units per g fresh weight | effect on primary biomass ([2]; 100, 500 or 1,000 ppm, 7 and/or 12 days after transplantation (FIG. 9)): little effect | effect on secondary biomass production ([2]; 100 or 500 ppm, 7 and/or 12 days after transplantation (FIG. 9)): significant positive effect | increase for primary biomass compared to control [2, 3]: less than 10% | relative increase of secondary leaf biomass compared to control (non-treated) plants [2, 3]: about 37.5% | effect on secondary biomass production ([2]; 1,000 ppm treatment (FIG. 9)): no positive impact | secondary leaf biomass harvested ([2]; plants treated with 500 ppm 7 days after transplantation, control ca. 16 g): ca. 22 g
